Where “and” joins values, the source holds several entries; their conditions need not be identical. Equal values may be shown once.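 48-hour exposure; five concentrations; linearly interpolated endpoints. GI50 = concentration required for 50% inhibition of growth. Definition used: TGI = concentration required for complete inhibition of growth.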
How the values were obtained:
Experiment in all cases: DTP human tumour cell line panel, 48 h
MDA-MB-231 breast = system: MDA-MB-231 breast
RPMI-8226 leukemia = system: RPMI-8226 leukemia
T-47D breast = system: T-47D breast
HOP-62 NSCLC = system: HOP-62 NSCLC
HL-60(TB) leukemia = system: HL-60(TB) leukemia
SNB-19 CNS = system: SNB-19 CNS
HS 578T breast = system: HS 578T breast
HOP-92 NSCLC = system: HOP-92 NSCLC
K-562 leukemia = system: K-562 leukemia
EKVX NSCLC = system: EKVX NSCLC

| SMILES | GI50 (MDA-MB-231 breast) | TGI (MDA-MB-231 breast) | GI50 (RPMI-8226 leukemia) | TGI (RPMI-8226 leukemia) | GI50 (T-47D breast) | TGI (T-47D breast) | GI50 (HOP-62 NSCLC) | TGI (HOP-62 NSCLC) | GI50 (HL-60(TB) leukemia) | TGI (HL-60(TB) leukemia) | GI50 (SNB-19 CNS) | TGI (SNB-19 CNS) | GI50 (HS 578T breast) | TGI (HS 578T breast) | GI50 (HOP-92 NSCLC) | TGI (HOP-92 NSCLC) | GI50 (K-562 leukemia) | TGI (K-562 leukemia) | GI50 (EKVX NSCLC) | TGI (EKVX NSCLC) |
| --- | --- | --- | --- | --- | --- | --- | --- | --- | --- | --- | --- | --- | --- | --- | --- | --- | --- | --- | --- | --- |
| Cc1cc(O)c(C2=NN(c3ccc(S(N)(=O)=O)cc3)C(c3ccccc3O)C2)cc1Cl (centres undefined) | 1910 nM | 5110 nM | 2240 nM | 10100 nM | 2610 nM | 11300 nM | 1750 nM | 3680 nM | 2490 nM | 6140 nM | 3500 nM | 11400 nM | 2950 nM | 10500 nM | 1460 nM | 6510 nM | 2170 nM | 7930 nM | 1960 nM | 6520 nM |
| COc1ccccc1-c1ccc2nc(NC(=O)Nc3cc(C(F)(F)F)cc(C(F)(F)F)c3)sc2c1 | 1950 nM | 4240 nM | 1630 nM | 5760 nM | 2160 nM | 9890 nM | 2100 nM | 4990 nM | 2010 nM | 4530 nM | 2440 nM | 12200 nM | 2350 nM | 7670 nM | 1190 nM | 4310 nM | 1540 nM | 8950 nM | – | – |
| COc1cccc2c1C(=O)c1c(O)c3c(c(O)c1C2=O)C[C@@](O)(C(=O)CO)C[C@@H]3OC1CC(OC(C)=O)C(OC(C)=O)C(C)O1 (some centres undefined) | 2890 nM | 15600 nM | 226 nM | 2110 nM | 237 nM | 1990 nM | 314 nM | 2270 nM | 235 nM | – | 496 nM | > 100000 nM | – | 4140 nM | 239 nM | – | 868 nM | – | 1920 nM | 9500 nM |
| COc1cccc2c1nc1cccc(OC)c1[n+]2[O-] | 16400 nM | 41400 nM | 7690 nM | 31400 nM | 1700 nM | 9260 nM | 4140 nM | 17800 nM | 2520 nM | 5940 nM | – | – | 5230 nM | 31200 nM | 2710 nM | 9280 nM | 11500 nM | 26600 nM | 13700 nM | 30900 nM |
| CN(C)c1ccc(/C=C/c2ccnc3ccc4ccccc4c23)cc1 | – | > 100000 nM | – | > 100000 nM | – | > 100000 nM | – | > 100000 nM | – | > 100000 nM | – | > 100000 nM | – | > 100000 nM | – | > 100000 nM | – | > 100000 nM | – | – |
| COc1ccc(-c2ccc3ncc4c(c3c2)n(-c2ccc(N3CCNCC3)c(C(F)(F)F)c2)c(=O)n4C)cn1 | < 10 nM and 6.01 nM | 823 nM and 446 nM | < 10 nM and 3.74 nM | 163 nM and 54.9 nM | < 10 nM and 1.89 nM | < 10 nM and 21 nM | < 10 nM and 11.9 nM | 378 nM and 428 nM | 14.3 nM | 113 nM | < 10 nM and 7.78 nM | 1200 nM and 254 nM | < 10 nM and 1.97 nM | 18.1 nM and 13 nM | < 10 nM and 1.46 nM | 21.9 nM and 15.5 nM | 8.43 nM | 204 nM | < 10 nM and 4.26 nM | 37.9 nM and 258 nM |
| CN(C)CCNC(=O)c1cccc2cc([N+](=O)[O-])ccc12 | – | 6210 nM | – | 2290 nM and 705 nM | – | 16300 nM | 1190 nM and 224 nM | 4130 nM and 1230 nM | 608 nM and 175 nM | 3020 nM and 541 nM | 2550 nM and 342 nM | 16100 nM and 2380 nM | – | 7160 nM | – | 1340 nM | 579 nM and 123 nM | – | – | 6330 nM and 2280 nM |

Reference: PubChem BioAssay (NCI)
